Common to all, as to assay: inhibition of tumour cell growth, NCI panel, 48 h
The test system of test [1] is HCT-15 colon.
The subject of test [2] is HT29 colon.
Test [3] relates to IGROV1 ovarian.
Test [4] has as its system OVCAR-3 ovarian.
For test [5], the system named is OVCAR-4 ovarian.
In test [6] the test system is OVCAR-5 ovarian.
Test [7] concerns SK-MEL-28 melanoma.
Test [8] has as its system SNB-19 CNS.
The test system of test [9] is TK-10 renal.
In test [10] the test system is A498 renal.

The values below come from PubChem BioAssay (NCI).

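Protocol summary: plate cells (96-well), add compound at 5 concentrations, incubate 48 h, interpolate endpoints linearly. GI50 marks 50% less growth. At the TGI there is no net growth.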 Where only a bound is given, the exact number is not on record here.

On to `Cc1ccc(F)cc1NC(=O)c1cc(Cl)ccc1Nc1ccccc1`, for which the GI50 in test [1] is above 100 µM; in test [2], above 100 µM; in test [3] it was above 100 µM; in [4] it was above 100 µM; in test [5], 15.9 µM; in test [6], above 100 µM. Besides, the GI50 in [7], in test [8] and in test [9] was above 100 µM each time. Further, the TGI in [1], in [2], in test [3], in test [4], in [5] and in test [6] was above 100 µM throughout. For the same molecule, the TGI in test [7], in [8] and in [9] was above 100 µM throughout.

Consider `CC1CC2(CCC1OCc1ccccc1)OCCO2` (stereo unspecified), for which the TGI in [10], in test [1], in test [2], in test [3], in test [4] and in [5] was above 100 µM in each case. The TGI in test [8] and in test [9] was above 100 µM throughout.

Turning to `COc1ccc(C(=O)CC(c2ccc(OC)c(OC)c2)c2c(O)c3ccccc3oc2=O)cc1OC` (stereo unspecified), the TGI in test [1], in test [2], in test [3], in test [4], in test [5] and in test [6] was above 100 µM throughout. Further, the TGI in test [7], in test [8] and in [9] was above 100 µM each time.

Regarding `CCC[CH2][Sn]1([CH2]CCC)[O]C(=O)CN=Cc2ccccc2[O]1`, the GI50 in test [1] was 0.358 µM; in test [2], 1.08 µM; in test [3], 2.27 µM; in [4], 0.545 µM; in test [5] it was 0.881 µM; in test [6], 1.63 µM. Besides, the GI50 in test [7] is 0.343 µM; in test [8], 0.222 µM; in test [9], 0.292 µM. Moreover, the TGI in [1] was 1.56 µM; in [2], 2.34 µM; in test [3], above 100 µM; in [4], 1.82 µM; in test [5], 2.32 µM; in [6] it was 2.98 µM. The figures for the TGI in test [7], in test [8] and in test [9] were 1.1 µM, 0.556 µM and 0.729 µM, respectively.

As for `COc1ccc(-c2cc(-c3nnc(SCC(=O)Nc4ccc(C(C)=O)cc4)o3)c3ccccc3n2)cc1`, the GI50 in test [10] is 24.8 µM; in test [1], above 100 µM; in [2], above 100 µM; in [3], 20.2 µM; in test [4], 62.6 µM; in test [6], above 100 µM. Further, the GI50 in test [7] was above 100 µM; in [8], 12.6 µM; in [9], 28.7 µM. The TGI in test [10] was 72.7 µM; in test [1], above 100 µM; in test [2], above 100 µM; in [3], above 100 µM; in test [4] it was above 100 µM; in [6] it was above 100 µM. For the same molecule, the TGI in test [7] is above 100 µM; in [8], above 100 µM; in [9] it was 78.6 µM.

Turning to `COc1ccc(-n2c3c(c4c(CN(C)C)c(O)c(C)cc42)CCc2ccccc2C3=O)cc1`, the GI50 in test [10] was 60 µM; in test [1], 28.7 µM; in test [2], above 100 µM; in test [3] it was 21 µM; in test [4], 34.2 µM; in test [6] it was 35.2 µM. Besides, the GI50 in [8] is above 100 µM; in test [9], 47.2 µM. The TGI is above 100 µM in test [10]; above 100 µM in test [1]; above 100 µM in test [2]; 85.2 µM in [3]; 97.2 µM in test [4]; above 100 µM in test [6]. Also, the TGI in [8] and in test [9] was above 100 µM throughout.

For the molecule `COc1cc(OC)cc(-c2cncn2-c2ccc(-c3nc4cc(OC)cc(OC)c4s3)cc2)c1`, the GI50 in [10] was 3.15 µM; in test [3], 5.07 µM; in test [4], 2.87 µM; in test [6] it was above 100 µM; in test [7] it was above 100 µM; in test [8] it was above 100 µM. In addition, the GI50 in test [9] is 16.8 µM. The TGI in [10], in [3], in test [4], in test [6], in [7] and in test [8] was above 100 µM each time. In test [9], this molecule yielded a TGI above 100 µM.

In the case of `C=CCN(CC=C)CC(C(C)=O)C(c1ccccc1)c1c(O)c2ccccc2oc1=O` (stereo unspecified), the TGI in test [10], in test [1], in test [2], in [3], in test [5] and in test [6] was above 100 µM in each case. The TGI in [7], in test [8] and in test [9] was above 100 µM throughout.

Consider `N#C[C@H]1Nc2ccccc2[C@@H](O)C1O` (stereo partly specified), for which the TGI in [1], in test [2], in test [3], in test [4], in test [5] and in [6] was above 100 µM in each case. Moreover, the TGI in [7] and in test [9] was above 100 µM throughout.

With `O=C1C=CC(=O)c2c1ncc1c2nc2sccn21`, the GI50 in [1] was 17.9 µM; in test [2] it was 37.6 µM; in test [3] it was 22.7 µM; in [4], 20.3 µM; in test [5], 27.7 µM; in test [6], 19.8 µM. The GI50 in test [7] was 22.9 µM; in test [8] it was 63.8 µM; in test [9] it was 18.3 µM. Also, the TGI is 39.5 µM in [1]; above 100 µM in test [2]; 56.6 µM in [3]; 63.4 µM in [4]; 59.8 µM in test [5]; 40.1 µM in test [6]. Moreover, the TGI in test [7] was 47.2 µM; in test [8] it was above 100 µM; in test [9], 33.5 µM.
